# ± gives the standard deviation of the averaged measurements.
# Tests used:
# Experiment in all cases: level (log10 ratio to DMSO vehicle control); higher = higher biomarker level / cell amount than vehicle control
# Conditions in all cases: in DMSO
# [1] = compound: OCC(F)(F)C(F)(F)C(F)(F)C(F)(F)C(F)(F)C(F)F [1H,1H,7H-Dodecafluoro-1-heptanol]
# Experimental: (§1)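 BioMAP Diversity Plus panel of 12 human primary cell co-culture systems (3C, 4H, LPS, SAg, BT, BF4T, BE3C, CASM3C, HDF3CGF, KF3CT, MyoF, Mphg). Compounds were added 1 h before stimulation and left for 24 h (MyoF 48 h; BT 72 h for soluble read-outs or 6 d for IgG). Biomarkers were read by ELISA, cytotoxicity by SRB, PBMC viability and proliferation by Alamar Blue. Each well value was divided by the mean of 8 DMSO control wells on the same plate and log10 transformed; duplicate blinded samples were tested at 4 concentrations.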
# [2] = compound: O=C(O)C(F)(F)C(F)(F)C(F)(F)C(F)(F)C(F)(F)F [Perfluorohexanoic acid]
# Experimental: as §1
# [3] = compound: N=C(N)C(F)(F)C(F)(F)C(F)(F)C(F)(F)C(F)(F)C(F)(F)C(F)(F)F [Perfluorooctanamidine]
# Experimental: as §1
# [4] = compound: O=C(O)CCC(F)(F)C(F)(F)C(F)(F)F [3:3 Fluorotelomer carboxylic acid]
# Experimental: as §1
Test System,level (log10) ([1]; 6700 nM),level (log10) ([1]; 20000 nM),level (log10) ([1]; 60000 nM),level (log10) ([2]; 6700 nM),level (log10) ([2]; 20000 nM),level (log10) ([2]; 60000 nM),level (log10) ([3]; 6700 nM),level (log10) ([3]; 20000 nM),level (log10) ([3]; 60000 nM),level (log10) ([4]; 6700 nM),level (log10) ([4]; 20000 nM),level (log10) ([4]; 60000 nM)
HDF3CGF:CD106/VCAM-1,0.014 ± 0.0014,0.011 ± 0.0085,-0.0045 ± 0.00071,-0.043 ± 0.04,-0.008 ± 0.023,-0.0145 ± 0.086,-0.0215 ± 0.013,-0.132 ± 0.018,-0.214,-0.0055 ± 0.00071,0.02 ± 0.014,-0.009 ± 0.0085
lMphg:sIL-10,0.0085 ± 0.11,-0.006 ± 0.031,0.0485 ± 0.0078,-0.0285 ± 0.0092,-0.0375 ± 0.046,-0.0945 ± 0.021,-0.051 ± 0.018,-0.118 ± 0.0057,-0.121,-0.049 ± 0.073,-0.035 ± 0.076,-0.087 ± 0.016
lMphg:IL-1alpha,-0.0255 ± 0.056,-0.0275 ± 0.079,-0.0735 ± 0.18,0.0035 ± 0.04,0 ± 0.011,-0.009 ± 0.033,-0.011 ± 0.024,-0.004 ± 0.044,0.027,-0.0005 ± 0.11,0 ± 0.057,0.028 ± 0.059
MyoF:TIMP-1,-0.013 ± 0.018,-0.0025 ± 0.023,-0.0065 ± 0.046,0.0085 ± 0.0021,-0.006 ± 0.0042,0.0245 ± 0.0064,0.0185 ± 0.011,0.041,0.123,-0.053 ± 0.067,-0.033 ± 0.059,-0.0275 ± 0.074
CASM3C:SRB,-0.0045 ± 0.00071,-0.006 ± 0.0028,-0.0015 ± 0.0021,-0.001,-0.013 ± 0.0028,-0.0005 ± 0.0021,-0.0015 ± 0.011,-0.0105 ± 0.00071,-0.018,0.005 ± 0.016,0.002 ± 0.014,-0.0055 ± 0.011
lMphg:CCL2/MCP-1,-0.011 ± 0.014,-0.009 ± 0.024,0.0115 ± 0.035,-0.0065 ± 0.028,-0.021 ± 0.0099,-0.014 ± 0.041,-0.03 ± 0.016,-0.006 ± 0.0085,0.021,-0.012 ± 0.02,-0.01 ± 0.018,0.017 ± 0.02
CASM3C:CD87/uPAR,-0.001 ± 0.016,0.0035 ± 0.021,-0.0055 ± 0.023,-0.003 ± 0.027,0.0085 ± 0.022,-0.012 ± 0.0014,-0.011 ± 0.016,-0.02 ± 0.037,-0.034,-0.01 ± 0.0071,0.002 ± 0.011,-0.01 ± 0.018
CASM3C:CD106/VCAM-1,-0.0025 ± 0.022,-0.017 ± 0.0057,-0.017 ± 0.024,-0.013 ± 0.011,-0.002 ± 0.014,-0.029 ± 0.018,-0.0165 ± 0.00071,-0.0195 ± 0.012,-0.032,-0.0255 ± 0.0035,-0.03 ± 0.0057,-0.0295 ± 0.015
CASM3C:Proliferation,0.004 ± 0.0042,-0.006 ± 0.025,-0.018 ± 0.013,-0.001 ± 0.018,-0.065,-0.0055 ± 0.015,0.0185 ± 0.0078,0.0085 ± 0.0035,-0.062,-0.01 ± 0.011,0.005 ± 0.0042,0.0005 ± 0.022
KF3CT:CXCL10/IP-10,0.004,0 ± 0.0014,-0.0055 ± 0.005,0.0045 ± 0.0092,0.0045 ± 0.005,0.017 ± 0.0014,0.012 ± 0.042,0.0025 ± 0.04,0.04,-0.0015 ± 0.0035,-0.008 ± 0.0057,-0.0045 ± 0.0035
HDF3CGF:MMP-1,0.0115 ± 0.015,0.0105 ± 0.0021,0.012 ± 0.02,0.0155 ± 0.036,0.0045 ± 0.016,-0.0145 ± 0.043,-0.008 ± 0.0099,0.012 ± 0.0085,-0.008,0.0045 ± 0.037,0.009 ± 0.017,0.0045 ± 0.015
BE3C:tPA,-0.0125 ± 0.0064,-0.0285 ± 0.018,-0.029 ± 0.018,-0.032 ± 0.054,-0.0405 ± 0.016,-0.046 ± 0.018,0 ± 0.0028,-0.006 ± 0.0014,0.019,-0.0195 ± 0.0035,-0.03 ± 0.016,-0.0365 ± 0.015
HDF3CGF:CXCL8/IL-8,0.0045 ± 0.016,0.0035 ± 0.019,0.0055 ± 0.0035,-0.003 ± 0.0057,0.006 ± 0.0014,0.005 ± 0.0071,0.006 ± 0.0014,0.0135 ± 0.005,0.007,-0.006 ± 0.016,-0.002 ± 0.0099,-0.004 ± 0.017
BE3C:PAI-I,-0.007 ± 0.0057,-0.009 ± 0.0099,-0.0105 ± 0.0078,-0.019 ± 0.018,-0.029 ± 0.011,0.0065 ± 0.022,0.0015 ± 0.00071,-0.006 ± 0.0099,-0.021,-0.0095 ± 0.00071,-0.0025 ± 0.015,0.0005 ± 0.0078
MyoF:Decorin,-0.0105 ± 0.00071,-0.0005 ± 0.036,-0.017 ± 0.021,-0.0215 ± 0.015,0.0005 ± 0.023,0.024 ± 0.013,0.004 ± 0.0099,0.0055 ± 0.013,0.07,-0.024 ± 0.0028,-0.0115 ± 0.015,-0.004 ± 0.024
KF3CT:PAI-I,-0.0075 ± 0.0092,-0.0035 ± 0.011,0 ± 0.0042,-0.0075 ± 0.00071,-0.0175 ± 0.0035,-0.0085 ± 0.00071,-0.001 ± 0.033,-0.017 ± 0.044,-0.008,-0.009 ± 0.031,-0.0125 ± 0.0021,-0.004 ± 0.0071

# Source: the supplement of paper PMC10331698
